Assay results as given in ChEMBL document CHEMBL1133946, “An approach to the identification of potent inhibitors of influenza virus fusion using parallel synthesis methodology” (Bioorg Med Chem Lett, 2001).
In brackets after ≈: the same amount, converted by molar mass.

Key:
[1] = test system: unidentified influenza virus; assay: Cytotoxicity of compound was measured against Influenza virus;in range of 8-9; type: functional
[2] = test system: unidentified influenza virus; assay: Compound tested for inhibition of influenza virus infectivity in cell culture determined by plaque reduction assay;Inactive; type: functional, organism-based
[3] = Compound tested for inhibition of hemolysis; type: functional
[4] = test system: unidentified influenza virus; assay: Cytotoxicity of compound was measured against Influenza virus; type: functional
[5] = test system: unidentified influenza virus; assay: Compound tested for inhibition of influenza virus infectivity in cell culture determined by plaque reduction assay; type: functional, organism-based
[6] = unidentified influenza virus, read-out: CC50
[7] = unidentified influenza virus, read-out: EC50

| Compound | CC50 [1] | EC50 [2] | IC50 [3] | CC50 [4, 6] | EC50 [5, 7] | CC50 [4] | EC50 [5] |
| --- | --- | --- | --- | --- | --- | --- | --- |
| CC1(C)C[C@H](O)C[C@](C)(C/N=C(\S)c2cccc(Cl)c2)C1 | 8 µg/mL (≈ 24.5 µM) | Not Active | 2.5 µg/mL (≈ 7.67 µM) |  |  |  |  |
| Cc1ccc(O)c(C(=O)NC[C@]2(C)C[C@H](O)CC(C)(C)C2)c1 |  |  | 0.15 µg/mL (≈ 0.491 µM) | 50 µg/mL (≈ 164 µM) | 0.136 µg/mL (≈ 0.445 µM) |  |  |
| CC1(C)C[C@H](O)C[C@@](C)(CNC(=S)c2cccc(Cl)c2)C1 |  |  | 0.047 µg/mL (≈ 0.144 µM) | 20 µg/mL (≈ 61.4 µM) | 0.02 µg/mL (≈ 0.0614 µM) |  |  |
| Cc1ccc(O)c(C(=O)NC[C@@]2(C)C[C@H](O)CC(C)(C)C2)c1 |  |  | 0.033 µg/mL (≈ 0.108 µM) | 70 µg/mL (≈ 229 µM) | 0.037 µg/mL (≈ 0.121 µM) |  |  |
| C[C@@H]1CCC[C@@H]2C[C@@H](NC(=O)c3cc(Cl)c(N)cc3O)CCN21 |  |  | 0.44 µg/mL (≈ 1.3 µM) | > 100 µg/mL | 2 µg/mL (≈ 5.92 µM) |  |  |
| CC1(C)C[C@H](O)C[C@@](C)(CNC(=O)c2cc(Cl)ccc2O)C1 (stereo in doubt; 10b) |  |  | 0.25 µg/mL (≈ 0.767 µM) |  |  | >100 µg/mL | 0.13 µg/mL (≈ 0.399 µM) |
| CC1(C)C[C@H](O)C[C@@](C)(CNC(=O)c2cc(Cl)ccc2O)C1 (stereo in doubt; 11b) |  |  | 0.025 µg/mL (≈ 0.0767 µM) | 80 µg/mL (≈ 246 µM) |  |  | 0.03 µg/mL (≈ 0.0921 µM) |
